Assay results reported in the METLIN SMRT retention time set (Domingo-Almenara et al. 2019).

assay: gradient 5% acetonitrile 3 min, to 50% in 2 min, to 85% in 15 min, held 3 min, 100 µL/min; details: column: Zorbax Extend-C18 2.1 x 50 mm; eluents: water / acetonitrile, 0.1% formic acid
Procedure, shortened: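 Mixtures of ~100 pure standards were chromatographed on a Zorbax Extend-C18 column (2.1 × 50 mm, 1.8 μm) at 100 μL/min using water and acetonitrile, each with 0.1% formic acid. Detection used a quadrupole time-of-flight mass spectrometer in positive and negative ionization mode, and data collection spanned 3 months. Retention time was obtained from adduct peaks picked computationally and each checked manually.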

Row | SMILES | RP-LC retention time [s]
1 | O=C(Cn1c(=O)n(-c2ccc(F)cc2)c2ncccc21)NCCN1CCCCC1 | 592
2 | Cc1ccc2[nH]c(C(=O)NCc3ccncc3)cc2c1 | 628
3 | CC1CCN(S(=O)(=O)c2ccc(-c3cc(C(F)(F)F)on3)o2)CC1 | 1190
4 | COc1cc2c(cc1OC)C(C(=O)NCCCN1CCOCC1)C(c1cccs1)N(C)C2=O (stereo not drawn) | 596
5 | Cc1ccc(-n2nc(C)c3sc(N4CCCC(C(=O)NCc5ccc(F)cc5Cl)C4)nc32)cc1 (stereo not drawn) | 1220
6 | C[C@@H](C(=O)O)c1ccc(-c2ccccc2)c(F)c1 | 974
7 | C=CCN1C(=O)COc2ccc(-c3nc(NC(=O)CCc4ccccc4)sc3C)cc21 | 1050
8 | O=C1CCCN1c1ccc(Cn2nc3c(-c4nc(-c5ccccc5)no4)cccn3c2=O)cc1 | 839
9 | Cc1nc(-c2csc(S(=O)(=O)N3CCC(C(=O)NC(C)Cc4ccco4)CC3)c2)no1 (stereo not drawn) | 843
10 | COc1ccc(CN2CC[C@@H]3CN(S(C)(=O)=O)[C@@H]3C2)c(OC)c1 | 580
11 | CCC(=O)NCc1cnn(-c2ccc(C(=O)Nc3ccc4c(c3)OCCO4)cc2)c1 | 702
12 | Cc1ccc(C(=O)NCC(=O)N2CCCc3ccccc32)s1 | 830
13 | CCc1cc(C(=O)Nc2ccc(C(=O)OC)cc2)nc2cc(-c3ccco3)nn12 | 1200
14 | CCc1cccc(C)c1Nc1c(-c2ccccc2)nc2cnccn12 | 947
15 | Cc1cc(-c2nnc(C3CC3)o2)c(C)n1CC(=O)NCc1ccc(F)cc1 | 784
16 | O=C(Cn1nc2ncccn2c1=O)NCc1ccco1 | 539
17 | CC(C)c1ccc(C(=O)N2CCc3c(c(-c4nc(C5CC5)no4)nn3C)C2)cc1 | 971
18 | CCc1ccc(-c2ccc(-n3nc(C)c(S(=O)(=O)N4CCCC4)c3C)nn2)cc1 | 1170
19 | COC(=O)c1ncn2c1C(=O)N(Cc1cccc(Br)c1)C(C)(C(=O)NC1CCCC1)C2 (stereo not drawn) | 764
20 | O=C(CCc1c(-c2ccc(Br)cc2)nc2ccccn12)NCc1cccc(F)c1 | 677
21 | COCCCn1c(=O)c2ccccc2n(Cc2nc(-c3cccc(Cl)c3)no2)c1=O | 1100
22 | CCn1c(CC2CCN(C(=O)c3nccc4ccccc34)C2)nc2cccnc21 (stereo not drawn) | 587
23 | Cc1nnc(-c2ccc(=O)n(CC(=O)NCc3ccc(F)c(Cl)c3)c2)o1 | 672
24 | COc1ccc(-c2csc3ncn(-n4c(C)ccc4C)c(=O)c23)cc1OC | 905
25 | Clc1ccc(-c2csc(N3CCN(c4nc(-c5ccccc5)cs4)CC3)n2)cc1 | 739

Row | SMILES | RP-LC retention time [s]
26 | Cc1c(Cl)cccc1N1C(=O)CN(S(C)(=O)=O)CC1(C)C(=O)NC1CCCCCC1 (stereo not drawn) | 938
27 | Cc1ccc2c(=O)c3c([nH]c2c1C)CCN(CC(=O)Nc1ccc2c(c1)OCCO2)C3 | 667
28 | CC(=O)c1ccc(NC(=O)Cn2c(C)cc(-c3nnc(C4CCC4)o3)c2C)cc1 | 813
29 | O=C(N[C@H]1C[C@@H]2C[C@H]1CN2C(=O)c1cccc(OC(F)(F)F)c1)c1ccccc1 | 846
30 | COCC(C)(O)CNC(=O)c1ccc(F)c(F)c1 (stereo not drawn) | 634
31 | COc1ccc(CNC(=O)C2CCN(S(=O)(=O)c3ccc4c(c3)sc(=O)n4C)CC2)cc1 | 795
32 | CCCc1cc(SCc2ccc(C(=O)OC)cc2)ncn1 | 992
33 | CCOc1ccc(N2CC(c3nnc(NC(=O)CC4CCCCC4)o3)CC2=O)cc1 (stereo not drawn) | 804
34 | Cc1noc(-c2ccc(OC3CN(C(=O)c4sccc4C)C3)cc2)n1 | 900
35 | Cc1cc(C)n(-c2cc(Nc3ccc(F)cc3)ncn2)n1 | 1010
36 | O=C(Nc1ccc(F)cc1F)N1CCc2nc(-c3ccc(F)cc3)ncc2C1 | 932
37 | CCc1nnc(NC(=O)CSc2nnc(-c3ccc(Cl)cc3)o2)s1 | 826
38 | CN1CCN(CCNC(=O)CCCn2c(=O)c3cccn3c3ccc(F)cc32)CC1 | 588
39 | CCSc1nc2ncc(-c3ccnc(N4CCN(C)CC4)n3)c(C)n2n1 | 808
40 | CC(C)n1cnc2c(-c3ccccc3)cn(CC(=O)NCc3ccco3)c2c1=O | 592
41 | CNC(=O)C1CCCN(c2nc3ncn(CC(=O)Nc4ccc5c(c4)OCO5)c(=O)c3s2)C1 (stereo not drawn) | 1110
42 | O=C(Cn1nc(N2CCCC2)c2ccccc2c1=O)Nc1ccc2c(c1)OCO2 | 854
43 | COc1ccc(NC(=O)N2CCN(Cc3nc4cc(-c5ccccc5)ccc4o3)CC2)cc1 | 823
44 | O=C1c2ccccc2C(=O)N1CCn1ncccc1=O | 603
45 | COc1cc([C@@H]2c3cc4c(cc3[C@H](O)[C@@H](CO)[C@@H]2C(=O)NCCc2ccccc2)OCO4)cc(OC)c1OC | 745
46 | Cc1cc(N2CCN(C(=O)Nc3cccc(C(F)(F)F)c3)CC2)nc(N2CCCCC2)n1 | 789
47 | Cc1noc(C)c1-c1ccc(S(=O)(=O)Nc2ccc(F)cc2)cc1 | 904
48 | O=c1[nH]c2ccc(S(=O)(=O)Nc3cccc(C(F)(F)F)c3)cc2[nH]1 | 664
49 | Cc1c(Cl)cccc1NC(=O)C1CCN(c2nc(C3CCC3)nc3csc(C)c23)CC1 | 1000

Results, then the compound that gave them:

Row | RP-LC retention time [s] | SMILES
50 | 636 | CC1CCC(NC(=O)C2CCCN(C(=O)c3cc(-c4ccccn4)n[nH]3)C2)CC1 (stereo not drawn)
51 | 771 | O=C(NCc1csc(C2CCCN(C(=O)c3cc(F)cc(F)c3)C2)n1)C1CCC1 (stereo not drawn)
52 | 696 | CCOC(=O)c1c(NC(=O)CSc2n[nH]c(N)n2)sc(C)c1C
53 | 806 | Cc1ccc(Cn2c(=O)n(CCNC(=O)CC(C)C)c3ncccc32)cc1
54 | 822 | Cc1ccc(C(=O)Nc2cnc(N3CCCCC3)nc2)s1
55 | 710 | CCS(=O)(=O)N(C)C1CCc2nn(Cc3ccccc3)c(=O)n2CC1 (stereo not drawn)
56 | 936 | Cc1cc(C(=O)NCc2ccco2)c2cccc(-c3ccccc3)c2n1
57 | 607 | O=C(O)CC1Sc2ccccc2NC1=O (stereo not drawn)
58 | 632 | O=C(NCc1cccnc1)c1cc2cc(Cl)ccc2[nH]1
59 | 860 | Cc1cccc(S(=O)(=O)N2CCN(c3cc(C)nc(NC4CCCCC4)n3)CC2)c1
60 | 928 | O=C(CN1C(=O)C(C(=O)N2CCCC2)Sc2ccccc21)NCc1ccccc1Cl (stereo not drawn)
61 | 939 | CC1=C(c2ccc(C(C)C)cc2)S(=O)(=O)N=C1N1CCC(C(=O)NCc2ccco2)CC1
62 | 666 | Cc1nc(-c2cc(S(=O)(=O)N3CCC(C(=O)NCCN4CCCCCC4)CC3)c(C)s2)no1
63 | 754 | COC(=O)CNC(=O)N1CCCC1c1ccccc1Cl (stereo not drawn)
64 | 696 | O=C(CN1CCC2(CC1)N=C(c1ccc(Cl)cc1)C(=O)N2)Nc1cc(F)ccc1F
65 | 819 | CCOc1ccccc1NC(=O)N1C[C@@H](F)C[C@H]1C(=O)N1CCc2ccccc2C1
66 | 961 | CCOc1ccccc1NC(=O)c1cnc2c(c1)c(=O)n(C)c(=O)n2-c1ccccc1
67 | 615 | O=C(c1ccc2c(c1)OCO2)N1CC(F)(F)C[C@H]1COc1ccncc1
68 | 967 | CC1=NS(=O)(=O)N(C)C=C1C(=O)OCc1nc(-c2cccc(F)c2)no1
69 | 955 | CC(C)OC(=O)CCC/C=C\C[C@@H]1[C@@H](/C=C/[C@@H](O)COc2cccc(C(F)(F)F)c2)[C@H](O)C[C@@H]1O

Row | RP-LC retention time [s] | SMILES
70 | 658 | COC(=O)CNC(=O)C1COc2ccc(NC(=O)C(C)C)cc2C1 (stereo not drawn)
71 | 845 | CCOc1ccccc1NC(=O)Nc1nnc(Cc2ccccc2)o1
72 | 932 | Cc1cccc(CNC(=O)CN2C(=O)C3CCCCN3c3ccc(S(=O)(=O)N(C)C)cc32)c1 (stereo not drawn)
73 | 769 | CCC(C)NC(=O)c1cc2c(s1)CCN(C(=O)c1ccccc1)C2 (stereo not drawn)
74 | 622 | CN(C)C(CNC(=O)C(=O)Nc1ccc(OC(F)(F)F)cc1)c1ccccc1Cl (stereo not drawn)
75 | 560 | NS(=O)(=O)c1ccc(CNC(=O)c2coc(NC(=O)c3cnccn3)n2)cc1
76 | 1100 | CCOc1ccc(-c2csc(Nc3ccc(F)cn3)n2)cc1
77 | 673 | Cc1nc2cccnc2n1C1CCN(C(=O)Nc2cccc(Br)c2)CC1
78 | 658 | Cn1nc(C(=O)N2CCOCC2)c2c1CCN(C(=O)Nc1ccccc1)C2
79 | 882 | COc1cc(OC)cc(C(=O)Nc2ccc3sccc3c2)c1
80 | 686 | Cc1ccc(NS(=O)(=O)c2cc3n(c2)CCCNC3=O)c(Cl)c1
81 | 949 | O=C(NCCc1cccs1)c1ccc2nc(Cc3ccccc3)oc2c1
82 | 1090 | Cc1ccc(N2CC(c3noc(-c4cc(Cl)ccc4F)n3)CC2=O)cc1 (stereo not drawn)
83 | 668 | COC(=O)CCN(C(=O)c1ccc(OC(C)=O)cc1)c1ccccn1
84 | 969 | Cc1nc(N2CCN(c3ncccn3)CC2)nc2c1C(=O)CC(c1ccccc1O)C2 (stereo not drawn)
85 | 888 | COc1ccc(-n2c(=O)n(C)c(=O)c3cc(C(=O)NCc4ccc(C)cc4)cnc32)cc1
86 | 957 | CCOC(=O)c1nc(Nc2ccc(Cl)cc2)c2ccccc2n1
87 | 641 | N#Cc1cccc(C(=O)N2CCC(c3cc(N)on3)CC2)c1
88 | 644 | CC(=O)N1CCc2nn(CC(=O)Nc3ccc(F)c(F)c3)c(=O)cc2C1
